Measured values taken from US20130190217A1, “ESTER OILS” (PANOLIN Holding AG, priority 2010, published 2013).
Values joined by “and” are separate entries in the source; they are usually repeats but may differ in a detail not shown here. Equal values may be shown once. One block for each compound: values may come before it.

Legend:
Viscosity index (VI) = assay type: physicochemical
Kinematic viscosity = assay type: physicochemical
Flashpoint = assay type: physicochemical
[1] = NOACK vaporization (physical vaporization according to Noack, 250° C. for 1 h); assay type: physicochemical
Text: Trimethylolpropane esters (TMP-C8/C10) are commercially available from various suppliers and have been used for comparative purposes.

Pour point = assay type: physicochemical
Text: In addition, the inventive ester oils have a high flashpoint, such that use at relatively high oil sump and component temperatures is possible without risk. In addition, the pour point of the ester oils is relatively low, as a result of which the esters are also usable at low temperatures. For a liquid product, the pour point denotes the temperature at which it is still just free-flowing in the course of cooling. Thus, the inventive ester oils can be used within a broad temperature range.

[2] = UBA number 4203; cited from earlier work
[3] = taken from safety data sheets; cited from earlier work
Density = assay type: physicochemical; details: Table 3
[4] = taken from safety data sheets; cited from earlier work; remark: listed apart in the source
[5] = High-Temperature High-Shear Viscosity (HTHS); assay type: physicochemical; details: 150° C.
Experimental: (§1) For the C12D13 esters and the C10D13 esters, three independently prepared samples were included in each case. For the C9D13 ester and for the D5C18 ester, one sample was analyzed in each case. The “CCS−25° C. [mPas]” and “CCS−20° C. [mPas]” columns each contain figures for the “Cold Crank Simulator” according to the standard ASTM D5293 at −25° C. and −20° C. The HTHS150° C. [mPas] column indicates what is called the “High-Temperature High-Shear Viscosity” (HTHS) at elevated temperature.

[6] = Cold Crank Simulator according to ASTM D5293; assay type: physicochemical
Experimental: as §1

[7] = taken from safety data sheets; cited from earlier work; remark: listed apart in the source
[8] = Table 3, listed as C10D13 (4th sample)
[9] = Table 3, listed as C10D13 (5th sample)
[10] = Table 3, listed as C12D13 (1st sample)
[11] = Table 3, listed as C12D13 (2nd sample)
[12] = Table 3, listed as C12D13 (3rd sample)

Compound: CC(C)CCCCCCCCCCOC(=O)CCCCCCCCC(=O)OCCCCCCCCCCC(C)C [C10D13, di(isotridecyl)decanedioate]
VI (Viscosity index (VI); [8]): 172
VI (Viscosity index (VI); [9]): 150
VI (Viscosity index (VI); Table 3, listed as C10D13 (6th sample)): 149
η40° C. (Kinematic viscosity; Table 3, 40° C., listed as C10D13 (4th sample)): 35.5 mm^2/s
η40° C. (Kinematic viscosity; Table 3, 40° C., listed as C10D13 (5th sample)): 36.0 mm^2/s
η40° C. (Kinematic viscosity; Table 3, 40° C., listed as C10D13 (6th sample)): 35.7 mm^2/s
η100° C. (Kinematic viscosity; Table 3, 100° C., listed as C10D13 (4th sample)): 7.2 mm^2/s
η100° C. (Kinematic viscosity; Table 3, 100° C., listed as C10D13 (5th sample)): 6.8 mm^2/s
η100° C. (Kinematic viscosity; Table 3, 100° C., listed as C10D13 (6th sample)): 6.7 mm^2/s
Pour point (Pour point; [8]): −52 °C
Pour point (Pour point; [9]): −50 °C
Flashpoint (Flashpoint; Table 3): 250 °C
NOACK ([1]; Table 3, 250° C. for 1 h, listed as C10D13 (4th sample)): 2.7%
NOACK ([1]; Table 3, 250° C. for 1 h, listed as C10D13 (5th sample)): 4%
NOACK ([1]; Table 3, 250° C. for 1 h, listed as C10D13 (6th sample)): 3.4%

Compound: CCCCCCCCC(CCCCCC)COC(=O)CCCCCCCC(=O)OCC(CCCCCC)CCCCCCCC (stereo not drawn) [Bis(2-hexyldecyl) azelate]
VI (Viscosity index (VI); Table 2, base oil): 160
η40° C. (Kinematic viscosity; Table 2, 40° C.): 33.0 mm^2/s
η100° C. (Kinematic viscosity; Table 2, 100° C.): 6.60 mm^2/s
Pour point (Pour point; Table 2, base oil): −64 °C
Flashpoint (Flashpoint; Table 2, base oil): 278 °C

Compound: CC(C)CCCCCCCCCCOC(=O)CCCCCCCCCCC(=O)OCCCCCCCCCCC(C)C [C12D13, di(isotridecyl)dodecanedioate]
VI (Viscosity index (VI); Table 2, base oil): 158
VI (Viscosity index (VI); [10]): 158
VI (Viscosity index (VI); [11]): 147
VI (Viscosity index (VI); [12]): 156
water endangerment class (WGK) [2]: WGK 1
η40° C. (Kinematic viscosity; Table 2, 40° C.): 42.0 mm^2/s
η100° C. (Kinematic viscosity; Table 2, 100° C.): 7.5 mm^2/s
η40° C. (Kinematic viscosity; Table 3, 40° C., listed as C12D13 (1st sample)): 40.47 mm^2/s
η40° C. (Kinematic viscosity; Table 3, 40° C., listed as C12D13 (2nd sample)): 42.0 mm^2/s
η40° C. (Kinematic viscosity; Table 3, 40° C., listed as C12D13 (3rd sample)): 41.2 mm^2/s
η100° C. (Kinematic viscosity; Table 3, 100° C., listed as C12D13 (1st sample)): 7.573 mm^2/s
η100° C. (Kinematic viscosity; Table 3, 100° C., listed as C12D13 (2nd sample)): 7.5 mm^2/s
η100° C. (Kinematic viscosity; Table 3, 100° C., listed as C12D13 (3rd sample)): 7.6 mm^2/s
η150° C. (Kinematic viscosity; Table 3, 150° C.): 3.45 mm²/s
Aquatic toxicity OECD 202 [3]: 880 mg/L
Density (Density; listed as C12D13 (1st sample)): 0.9051 g/mL
Density (Density; listed as C12D13 (2nd sample)): 0.9020 g/mL
Density (Density; listed as C12D13 (3rd sample)): 0.904 g/mL
Pour point (Pour point; Table 2, base oil): −57 °C
Pour point (Pour point; [10]): −48 °C
Pour point (Pour point; [11]): −57 °C
Pour point (Pour point; [12]): −51 °C
Flashpoint (Flashpoint; Table 2, base oil): 277 °C
Flashpoint (Flashpoint; [10]): 276 °C
Flashpoint (Flashpoint; [11]): 277 °C
Flashpoint (Flashpoint; [12]): 261 °C
Aquatic toxicity OECD 203 [4]: >1000 mg/L
HTHS150° C. [5]: 2.7 mPa·s
NOACK ([1]; Table 2, base oil): 5.7%
NOACK ([1]; Table 3, 250° C. for 1 h, listed as C12D13 (1st sample)): 2.4%
NOACK ([1]; Table 3, 250° C. for 1 h, listed as C12D13 (2nd sample)): 4.3%
NOACK ([1]; Table 3, 250° C. for 1 h, listed as C12D13 (3rd sample)): 2.9%
CCS−20° C. ([6]; listed as C12D13 (1st sample)): 1910 mPas
CCS−20° C. ([6]; listed as C12D13 (2nd sample)): 1700 mPas
CCS−25° C. ([6]; listed as C12D13 (1st sample)): 3210 mPas
CCS−25° C. ([6]; listed as C12D13 (3rd sample)): 3230 mPas

Compound: Di(C9) dodecanedioate
VI (Viscosity index (VI); Table 2, base oil): 189
η40° C. (Kinematic viscosity; Table 2, 40° C.): 24.8 mm^2/s
η100° C. (Kinematic viscosity; Table 2, 100° C.): 5.6 mm^2/s
Flashpoint (Flashpoint; Table 2, base oil): 245 °C
NOACK ([1]; Table 2, base oil): 5.0%

Compound: Di(iso-C9) dodecanedioate
VI (Viscosity index (VI); Table 2, base oil): 184
η40° C. (Kinematic viscosity; Table 2, 40° C.): 23.2 mm^2/s
η100° C. (Kinematic viscosity; Table 2, 100° C.): 5.28 mm^2/s
Pour point (Pour point; Table 2, base oil): −25 °C
NOACK ([1]; Table 2, base oil): 6.0%

Compound: CC(C)CCCCCCCCCCOC(=O)CCCCC(=O)OCCCCCCCCCCC(C)C [DITA, diisotridecyl adipate, reference compound]
VI (Viscosity index (VI); Table 2, base oil): 139
VI (Viscosity index (VI); Table 3): 139
Aquatic toxicity OECD 201 [7]: >1000 mg/L
η40° C. (Kinematic viscosity; Table 2, 40° C.): 27.0 mm^2/s
η100° C. (Kinematic viscosity; Table 2, 100° C.): 5.4 mm^2/s
η40° C. (Kinematic viscosity; Table 3, 40° C.): 25 mm^2/s
η100° C. (Kinematic viscosity; Table 3, 100° C.): 5 mm^2/s
Aquatic toxicity OECD 202 [3]: >100 mg/L
Density (Density): 0.91 g/mL
Pour point (Pour point; Table 2, base oil): −51 °C
Pour point (Pour point; Table 3): −60 °C
Flashpoint (Flashpoint; Table 2, base oil): 227 °C
Flashpoint (Flashpoint; Table 3): 244 °C
NOACK ([1]; Table 2, base oil): 8-10%
NOACK ([1]; Table 3, 250° C. for 1 h): 10.0%
CCS−20° C. [6]: 1455 mPas
CCS−25° C. [6]: 2646 mPas

Compound: CC(C)CCCCCCCCCCOC(=O)CCCCCCCC(=O)OCCCCCCCCCCC(C)C [C9D13, di(isotridecyl)nonanedioate]
VI (Viscosity index (VI); Table 2, base oil): 124
VI (Viscosity index (VI); Table 3): 150
η40° C. (Kinematic viscosity; Table 2, 40° C.): 42.4 mm^2/s
η100° C. (Kinematic viscosity; Table 2, 100° C.): 6.82 mm^2/s
η40° C. (Kinematic viscosity; Table 3, 40° C.): 36.1 mm^2/s
η100° C. (Kinematic viscosity; Table 3, 100° C.): 6.8 mm^2/s
Pour point (Pour point; Table 2, base oil): −39 °C
Flashpoint (Flashpoint; Table 2, base oil): 258 °C
NOACK ([1]; Table 2, base oil): 4.0%
NOACK ([1]; Table 3, 250° C. for 1 h): 3.5%

Compound: CC(C)CCCCCCCCCCCCCCC(=O)OCC(C)(C)COC(=O)CCCCCCCCCCCCCCC(C)C [D5C18, neopentyl glycol di(isostearate)]
VI (Viscosity index (VI); Table 3): 146
Aquatic toxicity OECD 201 [7]: >1000 mg/L
η40° C. (Kinematic viscosity; Table 3, 40° C.): 46.0 mm^2/s
η100° C. (Kinematic viscosity; Table 3, 100° C.): 8.0 mm^2/s
Aquatic toxicity OECD 202 [3]: >1000 mg/L
Pour point (Pour point; Table 3): −44 °C
Flashpoint (Flashpoint; Table 3): 280 °C
Aquatic toxicity OECD 203 [4]: >10 000 mg/l
NOACK ([1]; Table 3, 250° C. for 1 h): 2.0%

Now from value to compound, other results behind:

VI (Viscosity index (VI); Table 2, base oil): 161 and 162
η40° C. (Kinematic viscosity; Table 2, 40° C.): 25.7 mm^2/s and 23.4 mm^2/s
η100° C. (Kinematic viscosity; Table 2, 100° C.): 5.58 mm^2/s and 5.2 mm^2/s
Flashpoint (Flashpoint; Table 2, base oil): 266 °C
NOACK ([1]; Table 2, base oil): 3.5% and 4.3%
Compound: CC(C)CCCCCCCOC(=O)CCCCCCCCCCC(=O)OCCCCCCCC(C)C [Di(isodecyl) dodecanedioate]

VI (Viscosity index (VI); Table 2, base oil): 75
η40° C. (Kinematic viscosity; Table 2, 40° C.): 34.3 mm^2/s
η100° C. (Kinematic viscosity; Table 2, 100° C.): 5.1 mm^2/s
Compound: CCCCCCCCCCCCCCOC(=O)CCCCC(=O)OCCCCCCCCCCCCCC [Ditetradecyl adipate]

VI (Viscosity index (VI); Table 2, base oil): 151
η40° C. (Kinematic viscosity; Table 2, 40° C.): 18.1 mm^2/s
η100° C. (Kinematic viscosity; Table 2, 100° C.): 4.3 mm^2/s
Pour point (Pour point; Table 2, base oil): −65 °C
Flashpoint (Flashpoint; Table 2, base oil): 230 °C
NOACK ([1]; Table 2, base oil): 9.8%
Compound: CC(C)CCCCCCCOC(=O)CCCCCCCC(=O)OCCCCCCCC(C)C [Diisodecyl azelate]

VI (Viscosity index (VI); Table 2, base oil): 145
η40° C. (Kinematic viscosity; Table 2, 40° C.): 33.8 mm^2/s
η100° C. (Kinematic viscosity; Table 2, 100° C.): 6.4 mm^2/s
Pour point (Pour point; Table 2, base oil): −55 °C
Flashpoint (Flashpoint; Table 2, base oil): 243 °C
Compound: CCCCCCCCCCCCCOC(=O)CCCCCCCC(=O)OCCCCCCCCCCCCC [Ditridecyl azelate]

VI (Viscosity index (VI); Table 3): 140
η40° C. (Kinematic viscosity; Table 3, 40° C.): 22 mm^2/s
η100° C. (Kinematic viscosity; Table 3, 100° C.): 4.5 mm^2/s
Density (Density): 0.94 g/mL
Pour point (Pour point; Table 3): −30 °C
Flashpoint (Flashpoint; Table 3): 235 °C
NOACK ([1]; Table 3, 250° C. for 1 h): 3.6%
CCS−20° C. [6]: 221 mPas
CCS−25° C. [6]: 853 mPas
Compound: trimethylolpropane ester [TMP-C8/10, reference compound]
Aquatic toxicity OECD 201 [7]: 140 mg/L
Aquatic toxicity OECD 202 [3]: 600 mg/L
Aquatic toxicity OECD 203 [4]: >10 000 mg/l

VI (Viscosity index (VI); Table 2, base oil): 182
η40° C. (Kinematic viscosity; Table 2, 40° C.): 25.25 mm^2/s
η100° C. (Kinematic viscosity; Table 2, 100° C.): 5.58 mm^2/s
Pour point (Pour point; Table 2, base oil): −38 °C
NOACK ([1]; Table 2, base oil): 7.4%
Compound: Dodecanediol dipelargonate

VI (Viscosity index (VI); Table 2, base oil): 148
η40° C. (Kinematic viscosity; Table 2, 40° C.): 14.0 mm^2/s
η100° C. (Kinematic viscosity; Table 2, 100° C.): 3.10 mm^2/s
Pour point (Pour point; Table 2, base oil): −60 °C
Flashpoint (Flashpoint; Table 2, base oil): 235 °C
NOACK ([1]; Table 2, base oil): 15.5%
Compound: CC(C)CCCCCCCOC(=O)CCCCC(=O)OCCCCCCCC(C)C [Diisodecyl adipate]
